Laboratory results reported in patent US20220106304A1, “Transcription Factor BRN2 Inhibitory Compounds as Therapeutics and Methods for Their Use” (The University of British Columbia, priority 2018, published 2022).

target: T1, BRN2 (Homo sapiens, UniProt P20265); experiment: cell-based; settings: read-out: % BRN2 Inhibition (10 μM), 10 μM compound, 24 hours, 42D^ENZR cells stably expressing BRN2-luciferase reporter; negative = activation
T1 sequence (P20265 1-443): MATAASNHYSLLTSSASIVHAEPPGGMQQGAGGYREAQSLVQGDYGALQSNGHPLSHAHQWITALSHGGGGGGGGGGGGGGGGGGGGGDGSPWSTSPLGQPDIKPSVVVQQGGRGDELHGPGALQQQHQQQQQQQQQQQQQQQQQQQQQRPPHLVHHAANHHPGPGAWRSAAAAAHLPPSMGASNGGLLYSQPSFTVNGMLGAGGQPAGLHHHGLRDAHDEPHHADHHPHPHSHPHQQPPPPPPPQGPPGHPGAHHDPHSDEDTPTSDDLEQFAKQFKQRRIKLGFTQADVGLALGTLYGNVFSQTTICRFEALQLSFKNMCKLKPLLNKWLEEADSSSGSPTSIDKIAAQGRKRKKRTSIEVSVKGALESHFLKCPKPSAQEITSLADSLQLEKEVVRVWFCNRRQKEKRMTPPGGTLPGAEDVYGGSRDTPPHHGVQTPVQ

Compound	inhibition at 10 µM [%]
Clc1ccc2cc(-c3csc(-c4ccoc4)n3)oc2c1 [VPC-18-105, 4-(6-chlorobenzofuran-2-yl)-2-(furan-3-yl)thiazole]	79.5
FC(F)(F)c1ccc2cc(-c3csc(-c4ccc[nH]4)n3)oc2c1 [VPC-18-108]	84.4
Cc1ccc2cc(-c3csc(-c4ccco4)n3)oc2c1 [VPC-18-110, 2-(furan-2-yl)-4-(6-methylbenzofuran-2-yl)thiazole]	93.5
Clc1ccc2cc(-c3csc(-c4cc[nH]c4)n3)oc2c1 [VPC-18-115]	98
Clc1ccc2cc(-c3cccc(-c4ccc[nH]4)n3)oc2c1 [VPC-18-149]	94.6

same assay, conditions: read-out: % BRN2 Inhibition (30 μM), 30 μM compound, 24 hours, 42D^ENZR cells stably expressing BRN2-luciferase reporter; negative = activation

Compound	inhibition at 30 µM [%]
Clc1ccc2cc(-c3csc(-c4ccoc4)n3)oc2c1 [VPC-18-105, 4-(6-chlorobenzofuran-2-yl)-2-(furan-3-yl)thiazole]	92
FC(F)(F)c1ccc2cc(-c3csc(-c4ccc[nH]4)n3)oc2c1 [VPC-18-108]	92.6
Cc1ccc2cc(-c3csc(-c4ccco4)n3)oc2c1 [VPC-18-110, 2-(furan-2-yl)-4-(6-methylbenzofuran-2-yl)thiazole]	98.6
Clc1ccc2cc(-c3csc(-c4cc[nH]c4)n3)oc2c1 [VPC-18-115]	99
Clc1ccc2cc(-c3cccc(-c4ccc[nH]4)n3)oc2c1 [VPC-18-149]	96.2

system: not listed separately; experiment: Liver microsome metabolic stability, MLM; assay type: in vitro ADME; settings: MLM (single value or second of two), percent remaining at 60 min, 1 μM compound, 0.25 mg/mL protein, 1 mM NADPH
Summary of the method: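 Compound (1 μM) incubated at 37 °C with mouse or human liver microsomes (0.25 mg/mL) in 50 mM phosphate pH 7.4 with 1 mM NADPH; samples quenched at 0–60 min. Parent loss by LC-MS/MS gives t½ (0.693/k) and CL'int scaled by 45 mg protein/g liver.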

Compound	Met Stab % (60 mins HLM/MLM) [%]
Clc1ccc2cc(-c3csc(-c4ccoc4)n3)oc2c1 [VPC-18-105, 4-(6-chlorobenzofuran-2-yl)-2-(furan-3-yl)thiazole]	1
FC(F)(F)c1ccc2cc(-c3csc(-c4ccc[nH]4)n3)oc2c1 [VPC-18-108]	15
Cc1ccc2cc(-c3csc(-c4ccco4)n3)oc2c1 [VPC-18-110, 2-(furan-2-yl)-4-(6-methylbenzofuran-2-yl)thiazole]	1
Clc1ccc2cc(-c3csc(-c4cc[nH]c4)n3)oc2c1 [VPC-18-115]	18
Clc1ccc2cc(-c3cccc(-c4ccc[nH]4)n3)oc2c1 [VPC-18-149]	21
Cc1c(-c2csc(-c3ccc[nH]3)n2)oc2cc(Cl)ccc12 [VPC-18-155]	24

same assay, conditions: mouse, liver microsomes, pH 7.4; MLM (single value or second of two), 1 μM compound, 0.25 mg/mL protein; read-out: T1/2 in (mins HLM/MLM)

Compound	half-life at 1 µM [min]
Clc1ccc2cc(-c3csc(-c4ccoc4)n3)oc2c1 [VPC-18-105, 4-(6-chlorobenzofuran-2-yl)-2-(furan-3-yl)thiazole]	10
FC(F)(F)c1ccc2cc(-c3csc(-c4ccc[nH]4)n3)oc2c1 [VPC-18-108]	31
Cc1ccc2cc(-c3csc(-c4ccco4)n3)oc2c1 [VPC-18-110, 2-(furan-2-yl)-4-(6-methylbenzofuran-2-yl)thiazole]	10
Clc1ccc2cc(-c3csc(-c4cc[nH]c4)n3)oc2c1 [VPC-18-115]	22
Clc1ccc2cc(-c3cccc(-c4ccc[nH]4)n3)oc2c1 [VPC-18-149]	30
Cc1c(-c2csc(-c3ccc[nH]3)n2)oc2cc(Cl)ccc12 [VPC-18-155]	31

system: 42D^ENZR cells; experiment: Cell proliferation (crystal violet), BRN2 expressing 42D^ENZR cells; assay type: cell-based; settings: 42D cells, approximately 72 hours
Method: (§1) Plate 42DENZR (˜7000 cells per well) and 16D^CRPC (˜5000 cells per well) cells in 96 well plate with a volume of 100 μL per well. • 2. Next day 1 mL aliquots of media are combined with 3× the desired concentration of compounds. The aliquots are vortexed and 50 μL of each 3× concentration is added to the 100 μL of media in each well to give the ix desired concentration.
(§2) The following are the desired concentrations:
(§3) 0, 10 nM, 100 nM, 500 nM, 1 μM, 2.5 μM, 5 μM, 10 μM, 15 μM, […], 30 μM. • 3. Approximately 72 hours later, 17 μL of 10% Glutaraldehyde is added to each well and plates are placed on a shaker for 20-30 minutes. • 4. Media is washed off the fixed cells by slow submersion in a container of water. Then the water is removed by tapping the plate upside down. • 5. 75 μL of Crystal Violet™ solution is added into the 96 well plates and placed on a shaker for ˜30 minutes. • 6. Media is washed off the fixed cells by repeated slow submersion in a container of water and the plates are allowed to dry over-night. • 7. Next day, 75 μL of Sorensen Solution is accurately pipetted into each well. The plates placed on a shaker for ˜30 minutes. • 8. Absorbance is measured in the plate at 590 nm.

Compound	IC50 [µM]
Clc1ccc2cc(-c3cccc(-c4ccc[nH]4)n3)oc2c1 [VPC-18-149]	1
Cc1c(-c2csc(-c3ccc[nH]3)n2)oc2cc(Cl)ccc12 [VPC-18-155]	10

system: 42D^ENZR cells vs 16D^CRPC cells; experiment: Cell proliferation specificity, 42D^ENZR cells vs 16D^CRPC cells; assay type: cell-based; settings: 42D cells express BRN2, 16D cells do not; some also LNCaP; result in words
Method: as §1, §2, §3
Compounds that Show Specificity Towards 42D^ENZR Cells Vs 16D^CRPC Cells Progress to Step 4.
Where data is not available “na” is inserted.

Compound	specificity
Clc1ccc2cc(-c3csc(-c4ccoc4)n3)oc2c1 [VPC-18-105, 4-(6-chlorobenzofuran-2-yl)-2-(furan-3-yl)thiazole]	VPC-18- 105 (specific 42D not 16D)
FC(F)(F)c1ccc2cc(-c3csc(-c4ccc[nH]4)n3)oc2c1 [VPC-18-108]	VPC-18- 108 (specific)
Cc1ccc2cc(-c3csc(-c4ccco4)n3)oc2c1 [VPC-18-110, 2-(furan-2-yl)-4-(6-methylbenzofuran-2-yl)thiazole]	VPC-18- 110 (specific)
Clc1ccc2cc(-c3csc(-c4cc[nH]c4)n3)oc2c1 [VPC-18-115]	VPC-18- 115 (specific)
Clc1ccc2cc(-c3cccc(-c4ccc[nH]4)n3)oc2c1 [VPC-18-149]	not 16D
Cc1c(-c2csc(-c3ccc[nH]3)n2)oc2cc(Cl)ccc12 [VPC-18-155]	not 16D
